The results in this text go back to patent US6228872A, “Neurotrophic diamide and carbamate agents” (Bristol-Myers Squibb Company, priority 1999, dated 2001).

Like-named read-outs stand apart in the source and are kept apart here.

For this test, the target named is FKBP12 (Homo sapiens, UniProt P62942). Nature of the test: FKBP12 Rotamase Inhibition Assay. It counts as biochemical. As to conditions: for inhibition at 10 µM: read-out: % inhib. at 10 μM; for Ki: apparent Ki, 4° C., substrate succinyl-Ala-Leu-Pro-Phe-p-nitroanilide. As to the method:
FKBP12 Rotamase Inhibition Assay
The rotamase activity of FKBP-12 was measured by an adaptation of the assay described by Kofron et al. (Biochemistry, 30, pp. 6127-6134 (1991)). The assay was carried out at 4° C. with 1 mg chymotrypsin/mL of assay with succinyl-Ala-Leu-Pro-Phe-p-nitroanilide as the substrate. Chymotrypsin rapidly hydrolyzes the peptide bond on the C-terminal side of the Phe of the trans form of the peptide and releases the chromogenic p-nitroaniline. The rate of the reaction is controlled by the rate of conversion of the cis form of the peptide to the trans-form, the reaction catalyzed by FKBP12. The apparent Ki values for inhibition of the rotamase activity were determined by measuring decreases in the first order rate constant of the reaction catalyzed by FKBP12 as a function of the concentrations of the compounds described herein. Ki is the concentration of the compound that causes 50 percent inhibition of rotamase activity which is indicative of neurite outgrowth activity.

Where [1] appears, read: Table 2, 1 μM (values marked *), read-out: % inhib. at 1 μM*.
The mark [2] stands for this setting: Table 3, 1 μM, read-out: % rotamase inhib. at 1 μM.
Where [3] appears, read: Table 4, 1 μM, read-out: % rotamase inhib. at 1 μM.

FKBP12, sequence (P62942 whole entry, species assumed): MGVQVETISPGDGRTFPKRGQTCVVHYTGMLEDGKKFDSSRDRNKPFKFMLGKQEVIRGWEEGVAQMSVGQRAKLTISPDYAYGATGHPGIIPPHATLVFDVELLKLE

Turning to `COc1cc(C(=O)C(=O)N2CCCCC2COC(=O)N(CCCc2ccccc2)CCCc2cccnc2)cc(OC)c1OC` (racemic) [Example 19, N-(3,4,5-Trimethoxyphenyl)oxalyl-(±)-piperidinylmethyl-[N',N'-3-(3-pyridyl)-propyl-3-phenylpropylamino]carbamate], the inhibition at 10 µM (Table 2) came out at 11%.

`COc1cc(C(F)(F)C(=O)N2CCCCC2COC(=O)N(CCCc2cccnc2)Cc2ccccc2)cc(OC)c1OC` (racemic) [Example 41, N-(3,4,5-Trimethoxyphenyl)-difluoroacetyl-(±)-piperidinylmethyl-[N',N'-3-(3-pyridyl)propyl-benzylamino]carbamate]: under setting [1], the inhibition at 1 µM was 11%.

On to `COc1cc(C(F)(F)C(=O)N2CCCCC2COC(=O)N(CCCc2cccnc2)CCc2ccccc2)cc(OC)c1OC` (racemic) [Example 42, N-(3,4,5-Trimethoxyphenyl)-difluoroacetyl-(±)-piperidinylmethyl-[N',N'-3-(3-pyridyl)propyl-2-phenylethylamino]carbamate], for which the inhibition at 1 µM under setting [1] is 1%.

Consider `COc1cc(C(F)(F)C(=O)N2CCCCC2COC(=O)N(CCCCc2ccccc2)CCCc2cccnc2)cc(OC)c1OC` (racemic) [Example 43], for which, under setting [1], the inhibition at 1 µM is 0%.

`CC(C)(C)C(=O)C(=O)N1CCC[C@H]1COC(=O)N(CCCc1ccccc1)CCCc1cccnc1` [Example 1, N-Trimethylpyruvyl-L-pyrrolidinylmethyl-[N',N'-3-(3-pyridyl)propyl-3-phenylpropylamino]carbamate]: for the setting “Table 1”, the inhibition at 10 µM is 93%.

Take `CC(C)(C)C(=O)C(=O)N1CCC[C@H]1COC(=O)N(Cc1ccccc1)Cc1ccccc1` [Example 2, N-Trimethylpyruvyl-L-pyrrolidinylmethyl-[N',N'-dibenzylamino]carbamate]: the inhibition at 10 µM (Table 1) was determined as 27%.

For the compound `CC(C)(C)C(=O)C(=O)N1CCC[C@H]1COC(=O)N(CCc1ccccc1)Cc1ccccc1` [Example 3, N-Trimethylpyruvyl-L-pyrrolidinylmethyl-[N',N'-2-phenylethyl-benzylamino]carbamate], the inhibition at 10 µM (Table 1) was found to be 39%.

Consider `CC(C)(C)C(=O)C(=O)N1CCC[C@H]1COC(=O)NCc1cccnc1` [Example 4, N-Trimethylpyruvyl-L-pyrrolidinylmethyl-[N'-3-pyridylmethylamino]carbamate], for which the inhibition at 10 µM (Table 1) was 12%.

With `CC(C)(C)C(=O)C(=O)N1CCC[C@H]1COC(=O)NCCc1ccccc1` [Example 5, N-Trimethylpyruvyl-L-pyrrolidinylmethyl-[N'-2-phenylethylamino]carbamate], the inhibition at 10 µM (Table 1) turned out to be 0%.

On to `CC(C)(C)C(=O)C(=O)N1CCC[C@H]1COC(=O)NCCCc1ccccc1` [Example 6, N-Trimethylpyruvyl-L-pyrrolidinylmethyl-[N'-3-phenylpropylamino]carbamate], for which the inhibition at 10 µM (Table 1) came to 32%.

As to `COc1cc(C(=O)C(=O)N2CCC[C@H]2COC(=O)N(CCCc2ccccc2)CCCc2cccnc2)cc(OC)c1OC` [Example 7, N-(3,4,5-Trimethoxyphenyl)oxalyl-L-pyrrolidinylmethyl-[N',N'-3-(3-pyridyl)propyl-3-phenylpropylamino]carbamate], where the note is “Table 2”, the inhibition at 10 µM was determined as 100% and the Ki turned out to be 447 nM.

Take `COc1cc(C(=O)C(=O)N2CCC[C@H]2COC(=O)NCc2cccnc2)cc(OC)c1OC` [Example 8, N-(3,4,5-Trimethoxyphenyl)oxalyl-L-pyrrolidinylmethyl-[N'-3-pyridylmethylamino]carbamate]: the inhibition at 10 µM (Table 1) was determined as 11%.

Turning to `COc1cc(C(=O)C(=O)N2CCC[C@H]2COC(=O)NCCc2ccccc2)cc(OC)c1OC` [Example 9, N-(3,4,5-Trimethoxyphenyl)oxalyl-L-pyrrolidinylmethyl-[N'-2-phenylethylamino]carbamate], under “Table 1”, the inhibition at 10 µM stood at 11%.

In the case of `COc1cc(C(=O)C(=O)N2CCC[C@H]2COC(=O)N(CCCCc2ccccc2)CCCCc2cccnc2)cc(OC)c1OC` [Example 10, N-(3,4,5-Trimethoxyphenyl)oxalyl-L-pyrrolidinylmethyl-[N',N'-4-(3-pyridyl)butyl-4-phenylbutylamino]carbamate], the inhibition at 1 µM under setting [1] was 52%.

`COc1cc(C(=O)C(=O)N2CCC[C@H]2COC(=O)N(CCCCc2ccccc2)CCCc2cccnc2)cc(OC)c1OC` [Example 11, N-(3,4,5-Trimethoxyphenyl)oxalyl-L-pyrrolidinylmethyl-[N',N'-3-(3-pyridyl)propyl-4-phenylbutylamino]carbamate]: where the note is “Table 2”, the inhibition at 10 µM was found to be 96% and the Ki turned out to be 537 nM.

In the case of `COc1cc(C(=O)C(=O)N2CCC[C@H]2COC(=O)N(CCCc2cccnc2)CCc2ccccc2)cc(OC)c1OC` [Example 12, N-(3,4,5-Trimethoxyphenyl)oxalyl-L-pyrrolidinylmethyl-[N',N'-3-(3-pyridyl)propyl-2-phenylethylamino]carbamate], the inhibition at 10 µM (Table 2) was 80%.

With `COc1cc(C(=O)C(=O)N2CCC[C@H]2COC(=O)N(CCCc2cccnc2)Cc2ccccc2)cc(OC)c1OC` [Example 13, N-(3,4,5-Trimethoxyphenyl)oxalyl-L-pyrrolidinylmethyl-[N',N'-3-(3-pyridyl)propyl-benzylamino]carbamate], the inhibition at 10 µM (Table 2) is 79%.

On to `COc1cc(C(=O)C(=O)N2CCC[C@H]2COC(=O)N(CCCCc2cccnc2)CCCc2ccccc2)cc(OC)c1OC` [Example 14, N-(3,4,5-Trimetboxyphenyl)oxalyl-L-pyrrolidinylmethyl-[N',N'-4-(3-pyridyl)butyl-3-phenylpropylamino]carbamate], for which the inhibition at 1 µM under setting [1] came to 54%.

For `COc1cc(C(=O)C(=O)N2CCC[C@H]2COC(=O)N(CCCCc2cccnc2)CCc2ccccc2)cc(OC)c1OC` [Example 15, N-(3,4,5-Trimethoxyphenyl)oxalyl-L-pyrrolidinylmethyl-[N',N'-4-(3-pyridyl)butyl-2-phenylethylamino]carbamate], the inhibition at 10 µM (Table 2) amounted to 82%.

Consider `COc1cc(C(=O)C(=O)N2CCC[C@H]2COC(=O)N(CCCCc2cccnc2)Cc2ccccc2)cc(OC)c1OC` [Example 16, N-(3,4,5-Trimethoxyphenyl)oxalyl-L-pyrrolidinylmethyl-[N',N'-4-(^3-pyridyl)butyl-benzylamino]carbamate], for which the inhibition at 1 µM under setting [1] is 18%.

Turning to `COc1cccc(CCCN(CCCc2cccnc2)C(=O)OC[C@@H]2CCCN2C(=O)C(=O)c2cc(OC)c(OC)c(OC)c2)c1` [Example 17, N-(3,4,5-Trimethoxyphenyl)oxalyl-L-pyrrolidinylmethyl-[N',N'-3-(3-pyridyl)propyl-3-(3-methoxyphenyl)propylamino]carbamate], under setting [2], the inhibition at 1 µM amounted to 75%.

Regarding `COc1cc(CCCN(CCCc2cccnc2)C(=O)OC[C@@H]2CCCN2C(=O)C(=O)c2cc(OC)c(OC)c(OC)c2)cc(OC)c1OC` [Example 18, N-(3,4,5-Trimethoxyphenyl)oxalyl-L-pyrrolidinylmethyl-[N',N'-3-(3-pyridyl)propyl-3-(3,4,5-trimethoxyphenyl)propylamino]carbamate], the inhibition at 1 µM under setting [2] was 68%.

Consider `COc1cc(C(=O)C(=O)N2CCCC[C@H]2CCC(=O)N(CCCc2ccccc2)CCCc2cccnc2)cc(OC)c1OC` [Example 20], for which the inhibition at 1 µM under setting [3] is 0%.

Turning to `COc1cc(C(=O)C(=O)N2CCC[C@H]2CCC(=O)N(CCCc2ccccc2)CCCc2cccnc2)cc(OC)c1OC` [Example 21, N,N-(3-Phenylpropyl)-3-(3-pyridyl)propyl-2-[(S)-N'-(3,4,5-trimethoxyphenyl)oxalyl-2-pyrrolidinyl]propionamide], the inhibition at 1 µM under setting [3] turned out to be 1%.
